Patent EP0609289B1, “IMIDAZOLE DERIVATIVES AND PHARMACEUTICAL COMPOSITIONS CONTAINING THE SAME” (THE UPJOHN COMPANY, priority 1991, dated 1993)

How the values were obtained:
[1] = tested on: blood pressure increase by angiotensin II; test: Antagonism to blood pressure increase by angiotensin II in a spine destroyed (pithed) rat (test 4); type: in vivo, Wistar rat; details: intravenous administration, 3µg/kg angiotensin II, read-out: Inhibition of blood pressure increase by angiotensin II in pithed rat ED50(mg/kg) (test 4)
From the text: 4) Antagonism to blood pressure increasing by angiotensin II in a spine destroyed rat
Wistar rat anaesthetized with pentobarbital was fixed at dorsal position, and a cannula for measuring blood pressure was inserted into sinister arteria carotis communis, and a cannula for administration of the test compound into dexter external jugular vein and a cannula for administration of angiotensin II into sinister external jugular vein, ambilateral nervus vagus was cut, and artificial respiration was carried out. A thin bar made of metal was stabbed into spinal column through sinister orbita to destroy spine. Blood pressure was recorded on polygraph via pressure transducer from an arterial cannula. After blood pressure was stable for more than 30 min., 3µg/kg of angiotensin II was administered intravenously four times every 15 min, and every 5 min. before the administration of angiotensin II from the second administration onward, a solvent, a lower dose of the test compound, and a higher dose of the test compound were administered intravenously in this order to observe the blood pressure increasing response by angiotensin II. ED50 values were calculated from the inhibiting rate when the first blood pressure increase by angiotensin II was regarded as 100 %.

[2] = tested on: angiotensin II constriction in an isolated rabbit thoracic aorta; test: Antagonism to angiotensin II constriction in an isolated rabbit thoracic aorta (test 3); details: test compound 10^-6 M for 20 minutes
Experimental: 3) Antagonism to angiotensin II constriction in an isolated rabbit thoracic aorta
A rectangular strip-like sample of thoracic aorta isolated from an anaesthetized rabbit was prepared, and the sample was suspended at 2.0 g of loaded tension in a Magnus tube filled with Krebs-Henseleitoid nutrition solution which was well aerated with 95% O2-5% CO2, and the constriction tension was measured using an isometric transducer. After the tension of the sample at rest became stable, accumulative administration of angiotensin II was carried out to obtain a concentration-action curve. Thereafter, the sample was washed with the same nutrition solution, then treated with test compound (10^-6 M) for 20 minutes to obtain again a concentration-action curve of angiotensin II. The results were obtained as followed: generated maximum tension at the first accumulative administration of angiotensin II was regarded as 100 %, and the 50 % effective concentration (ED50) was obtained in the presence or absence of the test compound, and pA2 value was calculated according to the following equations: • pA2=-logKB KB=C/{(A'/A)-1} • C; concentration of the test compound (M) • A'; ED50 in the presence of test compound (M) • A; ED50 in the absence of the test compound (M)

Angiotensin II receptor = test: In vitro angiotensin II mesenteric artery receptor binding assay (test 1); details: rat mesenteric artery membrane fraction, 0.2 nM 125I-Ang II, 22°C, 90 minutes
Experimental: I) In vitro angiotensin II mesenteric artery receptor binding assay
According to the method (1) by Gunther et al., a membrane fraction was prepared from mesenteric artery of male rat, […] protein equivalent of it and 0.2 nM ^125I-Ang II as well as various concentrations of test compounds were incubated at 22°C for 90 minutes in an incubation buffer (50 mM Tris-HCl, 120 mM NaCl, 5 mM MgCl2. 0.25% bovine serum albumin, pH 7.2) (reaction volume; 200 µl). The incubated was cooled, and the reaction was stopped by addition of ice-cooled phosphate buffer (10 mM phosphate, 140 mM NaCI, pH 7.4, hereinafter referred to as PBS), and then the reaction solution was filtered through a glass fiber filter (Whatman CF/B), the filter was washed, dried, and then the radioactivity of captured ^125I-angiotensin II which bound to the receptor was measured by a γ-counter. Non-specific bound amount was obtained from the reaction in the presence of 1 µM of unlabeled angiotensin II. […] Res., 17:278-286, 1980].

SMILES	ED50 [1] [mg/kg]	Inhibition of rabbit aorta constriction pA2 (test 3) [2]	IC50 (Angiotensin II receptor) [nM]
CCCc1nc2c(n1Cc1ccc(-c3ccccc3-c3nn[nH]n3)cc1)C(=O)N1C3CCC(CC3)N1C2 [Compound No. 438, 5,8-ethano-2-n-propyl-5,6,7,8-tetrahydro-1-[{2'-(1H-tetrazol-5-yl)biphenyl-4-yl}methyl],1H,4H-1,3,4a,8a-tetraza-cyclopentanaphthalene-9-one]	0.37	8.57	7.5
CCCCc1nc2c(=O)n3n(c(=O)c2n1Cc1ccc(-c2ccccc2-c2nn[nH]n2)cc1)CC(C)C(C)C3 (centres unmarked) [Compound No. 51, 2-n-butyl-6,7-dimethyl-5,6,7,8-tetrahydro-1-[(2'-(1H-tetrazol-5-yl)biphenyl-4-yl)methyl]-1H-1,3,4a,8a-tetraza-cyclopentanaphthalene-4,9-dione]	0.65	9.04	4.6
CCCCc1nc2c(=O)n3n(c(=O)c2n1Cc1ccc(-c2ccccc2-c2nn[nH]n2)cc1)C1CCC3CC1 [Compound No. 109, 2-n-butyl-5,8-ethano-5,6,7,8-tetrahydro-1-[(2'-(1H-tetrazol-5-yl)biphenyl-4-yl)methyl]-1H-1,3,4a,8a-tetraza-cyclopentanaphthalene-4,9-dione]	0.21	9.49	2.8
CCCc1nc2c(=O)n3n(c(=O)c2n1Cc1ccc(-c2ccccc2-c2nn[nH]n2)cc1)C1CCC3(C(=O)NC(C)(C)C)CC1 [Compound No. 235, 4,9-dioxo-5,8-ethano-2-n-propyl-5,6,7,8-tetrahydro-1-[{2'-(1H-tetrazol-5-yI)biphenyl-4-yl}methyl]-1H-1,3,4a,8a-tetraza-cyclopentanaphthalene-5-carboxy-N-t-butylamide]	0.07	9.62	21
CCCc1nc2c(=O)n3n(c(=O)c2n1Cc1ccc(-c2ccccc2-c2nn[nH]n2)cc1)C(C)CCC3C(=O)OCC (centres unmarked) [Compound No. 139, ethyl 4,9-dioxo-8-methyl-2-n-propyl-5,6,7,8-tetrahydro-1-[(2'-(1H-tetrazol-5-yl)biphenyl-4-yl)methyl]-1H-1,3,4a,8a-tetraza-cyclopentanaphthalene-5-carboxylate]	0.038	10.63	1.9
CCCc1nc2c(n1Cc1ccc(-c3ccccc3-c3nn[nH]n3)cc1)C(=O)N1C(C)CCC(C)N1C2 (centres unmarked) [Compound No. 430, 5,8-dimethyl-2-n-propyl-5,6,7,8-tetrahydro-1-[{2'-(1H-tetrazol-5-yl)biphenyl-4-yl}methyl]-1H,4H-1,3,4a,8a-tetraza-cyclopentanaphthalene-9-one]	–	10.04	3.9
CCCc1nc2c(=O)n3n(c(=O)c2n1Cc1ccc(-c2ccccc2-c2nnn[nH]2)cc1)C1CCC3(COCC(=O)OC(C)(C)C)CC1 [Compound No. 223, 5-t-butoxycarboxylmethoxymethyl-5,8-ethano-2-n-propyl-5,6,7,8-tetrahydro-1-[{2'-(1H-tetrazol-5-yl)biphenyl-4-yl}methyl]-1H-1,3,4a,8a-tetraza-cyclopentanaphthalene-4,9-dione]	0.1	9.68	9.8
CCCc1nc2c(=O)n3n(c(=O)c2n1Cc1ccc(-c2ccccc2-c2nn[nH]n2)cc1)C(C)CCC3C(=O)N(CC)CC (centres unmarked) [Compound No. 203, 4,9-dioxo-8-methyl-2-n-propyl-5,6,7,8-tetrahydro-1-[{2'-(1H-tetrazol-5-yl)biphenyl-4-yl}methyl]-1H-1,3,4a,8a-tetraza-cyclopentanaphthalene-5-carboxy-N,N-diethylamide]	–	10.0	1.9
CCCCc1nc2c(=O)n3n(c(=O)c2n1Cc1ccc(-c2ccccc2-c2nnn[nH]2)cc1)C1CCC3(CO)CC1 [Compound No. 220, 2-n-butyl-5,8-ethano-5-hydroxymethyl-5,6,7,8-tetrahydro-1-[{2'-(1H-tetrazol-5-yl)biphenyl-4-yl}methyl]-1H-1,3,4a,8a-tetraza-cyclopentanaphthalene-4,9-dione]	0.27	9.93	2.6
CCCc1nc2c(=O)n3n(c(=O)c2n1Cc1ccc(-c2ccccc2-c2nn[nH]n2)cc1)CCCC3 [Compound No. 46, 2-n-propyl-5,6,7,8-tetrahydro-1-[(2'-(1H-tetrazol-5-yl)biphenyl-4-yl)methyl]-1H-1,3,4a,8a-tetraza-cyclopentanaphthalene-4,9-dione]	–	8.95	3.3
CCCCc1nc2c(=O)n3n(c(=O)c2n1Cc1ccc(-c2ccccc2-c2nn[nH]n2)cc1)CC=CC3 [Compound No. 71, 2-n-butyl-5,8-dihydro-1-[(2'-(1H-tetrazol-5-yl)biphenyl-4-yl)methyl]-1H-1,3,4a,8a-tetraza-cyclopentanaphthalene-4,9-dione]	–	9.09	7
CCCCc1nc2c(=O)n3n(c(=O)c2n1Cc1ccc(-c2ccccc2-c2nn[nH]n2)cc1)C(C)CCC3C(=O)OCC (centres unmarked) [compound 169, ethyl 2-n-butyl-4,9-dioxo-8-methyl-5,6,7,8-tetrahydro-1-[{2'-(1H-tetrazol-5-yl)biphenyl-4-yl}methyl]-1H-1,3,4a,8a-tetraza-cyclopentanaphthalene-5-carboxylate]	–	10.19	1.3
CCCc1nc2c(=O)n3n(c(=O)c2n1Cc1ccc(-c2ccccc2-c2nn[nH]n2)cc1)C(C(=O)OCC)CCC3C (centres unmarked) [Compound No. 138, ethyl 4,9-dioxo-5-methyl-2-n-propyl-5,6,7,8-tetrahydro-1-[(2'-(1H-tetrazol-5-yl)biphenyl-4-yl)methyl]-1H-1,3,4a,8a-tetraza-cyclopentanaphthalene-8-carboxylate]	0.096	–	4
CCCCc1nc2c(=O)n3n(c(=O)c2n1Cc1ccc(-c2ccccc2-c2nn[nH]n2)cc1)C1C=CC3CC1 (centres unmarked) [compound 106, 2-n-butyl-5,8-dihydro-5,8-ethano-1-[(2'-(1H-tetrazol-5-yl)biphenyl-4-yl)methyl]-1H-1,3,4a,8a-tetraza-cyclopentanaphthalene-4,9-dione]	–	9.2	3.8
CCCc1nc2c(n1Cc1ccc(-c3ccccc3-c3nn[nH]n3)cc1)C(=O)N1CCCCN1C2 [Compound No. 366, 2-n-propyl-5,6,7,8-tetrahydro-1-[{2'-(1H-tetrazol-5-yl)biphenyl-4-yl}methyl]-1H,4H-1,3,4a,8a-tetraza-cyclopentanaphthalene-9-one]	–	9.32	32
CCCc1nc2c(=O)n3n(c(=O)c2n1Cc1ccc(-c2ccccc2-c2nnn[nH]2)cc1)C1CCC3(C(=O)N(CC)CC)CC1 [Compound No. 231, 4,9-dioxo-5,8-ethano-2-n-propyl-5,6,7,8-tetrahydro-1-[{2'-(1H-tetrazol-5-yl)biphenyl-4-yl}methyl]-1H-1,3,4a,8a-tetraza-cyclopentanaphthalene-5-carboxy-N,N-diethylamide]	0.074	–	9.8
CCCCc1nc2c(=O)n3n(c(=O)c2n1Cc1ccc(-c2ccccc2-c2nnn[nH]2)cc1)C(C)CCC3C(=O)NC(C)(C)C (centres unmarked) [Compound No. 208, 2-n-butyl-4,9-dioxo-8-methyl-5,6,7,8-tetrahydro-1-[{2'-(1H-tetrazol-5-yl)biphenyl-4-yl}methyl]-1H-1,3,4a,8a-tetraza-cyclopentanaphthalene-5-carboxy-N-t-butylamide]	0.12	–	8.2
